A word on the IC50: it is the concentration at which inhibition is half-maximal. Low readings indicate greater potency, high ones weaker potency. As a reminder, the inhibition is the change of the read-out against control, counted positive when it falls. A high value points to a response far below the control.

For three molecules, IC50 and inhibition results are on record in publication PMC7284133, “Identification and analysis of novel small molecule inhibitors of RNase E: Implications for antibacterial targeting and regulation of RNase E” (Biochemistry and Biophysics Reports, 2020).

Assay [1] addresses T1, RNase E (Escherichia coli, UniProt P21513).
T1 construct: gene rne; N-terminal domain (aa 1–529), N-terminally His10-tagged
The assay can be described thus: FRET-based real-time RNA cleavage assay; also discontinuous PAGE assay. It is filed as biochemical.

Assay [2] concerns the target T2, RNase E (Acinetobacter baumannii, UniProt A0ABX6CBI2).
T2 construct: gene rne; N-terminal domain (aa 1–544), N-terminally His10-tagged
Briefly: biochemical.

T1 sequence (P21513 1-529): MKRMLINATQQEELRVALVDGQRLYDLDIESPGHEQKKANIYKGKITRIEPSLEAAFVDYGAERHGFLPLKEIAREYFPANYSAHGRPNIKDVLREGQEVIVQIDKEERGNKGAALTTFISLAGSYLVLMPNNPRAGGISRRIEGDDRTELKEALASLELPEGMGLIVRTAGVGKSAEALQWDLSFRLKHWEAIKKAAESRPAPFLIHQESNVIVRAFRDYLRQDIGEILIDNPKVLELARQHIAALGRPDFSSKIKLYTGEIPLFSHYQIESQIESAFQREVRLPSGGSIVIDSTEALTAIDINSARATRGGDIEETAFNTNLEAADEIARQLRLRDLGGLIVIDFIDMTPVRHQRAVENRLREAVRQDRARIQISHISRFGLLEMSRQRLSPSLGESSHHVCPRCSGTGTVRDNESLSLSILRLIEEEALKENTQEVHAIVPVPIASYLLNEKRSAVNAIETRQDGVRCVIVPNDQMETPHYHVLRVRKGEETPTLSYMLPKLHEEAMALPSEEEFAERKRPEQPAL

For `CC(C)c1c(O)nc(SCCC(=O)O)[nH]c1=O` [AS2], the IC50 in assay [1] was 1.9 mM. Take `CC1=NNC(=O)C1CCC(=O)O` (stereo not shown) [5′S1]: in assay [2], the inhibition at 2000 µM was around 60%. In assay [1], this molecule displayed an IC50 of 2.5 mM.

For `N[C@@H]1[C@@H](O)[C@H](O)[C@@H](COP(=O)(O)O)O[C@@H]1O` [AS4, glucosamine-6-phosphate], 2.1 mM corresponded to half-maximal inhibition in assay [1] (IC50).
